Measured values: US20090215755A1, “USE OF A PYRAZOLE DERIVATIVE FOR PREPARING MEDICINAL PRODUCTS THAT ARE USEFUL IN THE PREVENTION AND TREATMENT OF DYSLIPIDAEMIAS AND OF DISEASES RELATED TO DYSLIPIDAEMIAS AND/OR TO OBESITY” (SANOFI-AVENTIS, priority 2003, published 2009)
Marks after values point to notes of the source that are not given here.

Columns and labels:
[1] = system: obese patients; assay: Clinical trial of rimonabant on the lipid parameters, 4 weeks of treatment, obese patients; format: in vivo, human; conditions: for Improvement in metabolic syndrome / Weight loss / Decrease in triglycerides ≧10% / Increase in HDLc ≧10% / Blood glucose level: obese patients; for Improvement in metabolic syndrome: ATP III definition; for Weight loss: low-calorie diet; for Decrease in triglycerides ≧10% / Increase in HDLc ≧10%: share of patients; for Blood glucose level: signed values (change)
Description: A clinical trial was carried out for 4 weeks on 287 obese patients whose body mass index (BMI) was between 30 and 40. After having received the placebo for 2 weeks, the patients were randomized so as to receive doses of 5, 10 or 20 mg/day of rimonabant or the placebo.
There was a check-up visit 4 weeks after the end of the treatment.
For the duration of the study, the patients were asked to follow a low-calorie diet (deficit of 500 kcal/day).

[2] = system: obese patients; conditions: clinical studies, Le Fur 2003; Heshmati et al. 2001; cited from earlier work
[3] = system: obese mice; assay: Action of rimonabant on blood lipid levels in obese mice (2 months of treatment); format: in vivo; conditions: rimonabant 10 mg/kg/day oral
Description: The effect of a long-term (2 months) treatment with rimonabant was studied in mice having an established obesity.
The study was carried out in mice receiving either a normal diet or a fatty diet. Obesity developed in the mice receiving a fatty diet and it became stabilized after 5 months. The mice were then divided up into 3 groups:
group 1: maintenance of the fatty diet and oral treatment for 2 months with rimonabant at 10 mg/kg/day, in water with 0.1% of Tween 80 (vehicle);
group 2: maintenance of the fatty diet and administration of the vehicle (water+0.1% of Tween 80);
group 3: return to a normal diet and administration of the vehicle (water+0.1% of Tween 80);
group 4 consists of mice receiving a normal diet and the vehicle from the start.

[4] = system: obese individuals with dyslipidaemias; assay: Rio Lipids clinical study, 12 months, obese individuals with dyslipidaemias; format: in vivo, human
Description: The Rio Lipids clinical study, carried out for 12 months in 1036 obese individuals with dyslipidaemias, compares the effect of rimonabant at a dose of 20 mg, versus a placebo product, in weight reduction, improvement in the lipid parameters and prevalence of metabolic syndrome. The treated group and the placebo group are subjected to a low-calorie diet.

[5] = system: obese fa/fa Zucker rats; assay: Effect of rimonabant on steatosis and steatohepatitis in obese rats; format: in vivo; conditions: rimonabant 30 mg/kg/day oral, 2 months
Description: The effect of rimonabant on steatosis and steatohepatitis was studied in obese fa/fa Zucker rats.
For this study, 3 groups are formed: • thin rats/vehicle group: thin Zucker rats treated with the vehicle (water and 0.1% Tween 80); • obese rats/vehicle group: obese fa/fa Zucker rats treated with the vehicle (water and 0.1% Tween 80); • obese rats/rimonabant group: obese fa/fa Zucker rats treated orally for 2 months with rimonabant at 30 mg/kg/day, in the vehicle (water and 0.1% Tween 80).
After 2 months of treatment, the body weight and the weight of the liver are measured for each rat, and a histopathological analysis of the fat load in the livers is carried out.

[6] = rimonabant groups 5, 10, 20 mg/day taken together
[7] = group 1: obese mice kept on fatty diet
[8] = group 1: obese mice, fatty diet

In the case of `Cc1c(C(=O)NN2CCCCC2)nn(-c2ccc(Cl)cc2Cl)c1-c1ccc(Cl)cc1` [rimonabant, N-piperidino-5-(4-chlorophenyl)-1-(2,4-dichlorophenyl)-4-methylpyrazole-3-carboxamide], the “Improvement in metabolic syndrome” value ([1]; 5 mg/d rimonabant) is reported as 42%, the Weight loss ([1]; 5 mg/d rimonabant) is reported as 3.4 * kg and the “Decrease in triglycerides ≧10%” value ([1]; 5 mg/d rimonabant) is reported as 36%. For the same compound, the “Increase in HDLc ≧10%” value ([1]; 5 mg/d rimonabant) was 43%, the Blood glucose level ([1]; 5 mg/d rimonabant) was −0.09 ** mmol/1 and the “Improvement in metabolic syndrome” value ([1]; 10 mg/d rimonabant) was 39%. The Weight loss ([1]; 10 mg/d rimonabant) was 3.7 * kg, the “Decrease in triglycerides ≧10%” value ([1]; 10 mg/d rimonabant) was 34% and the “Increase in HDLc ≧10%” value ([1]; 10 mg/d rimonabant) was 45%. For the same compound, the Blood glucose level ([1]; 10 mg/d rimonabant) was −0.02 *** mmol/1, the “Improvement in metabolic syndrome” value ([1]; 20 mg/d rimonabant) was 21% and the Weight loss ([1]; 20 mg/d rimonabant) was 4.5 * kg. For the same compound, the “Decrease in triglycerides ≧10%” value ([1]; 20 mg/d rimonabant) was 51%, the “Increase in HDLc ≧10%” value ([1]; 20 mg/d rimonabant) was 44% and the Blood glucose level ([1]; 20 mg/d rimonabant) was “+0.03 mmol/1”. For the same compound, the “blood glucose level (overall statement)” value [1, 6] was “remains stable or decreases discretely”, the “metabolic syndrome as defined by ATP III (overall statement)” value [1, 6] was “tendency for the metabolic syndrome to improve” and the “triglycerides (overall statement)” value [1, 6] was “tendency for the triglycerides to decrease”. The “body weight of obese patients” value [2] was “reduces the body weight of obese patients”, the food intake [2] was “acts on food intake from a quantitative and qualitative point of view” and the HDLc/total cholesterol [3, 7] was 62.2 ± 0.5 %. The LDLc/total cholesterol [3, 7] was 5.5 ± 0.3 %, the glucose blood level [3, 8] was “decrease” and the insulin blood level [3, 8] was “decrease”. For the same compound, the leptin blood level [3, 8] was “decrease”, the “adiponectin, starting level” value ([4]; rimonabant 20 mg group, before the year of treatment) was 5.8 ± 2.7 µg/mL and the “adiponectin at the end of the year of treatment” value ([4]; rimonabant 20 mg, 12 months) was 8.2 ± 4.2 µg/mL. For the same compound, the “increase in the HDLc level exceeding that of the placebo group” value ([4]; rimonabant 20 mg, 12 months, low-calorie diet) was 11.3±1.7%, the “decrease in the triglyceride level exceeding that of the placebo group” value ([4]; rimonabant 20 mg, 12 months, low-calorie diet, p<0.001) was 12.2±3.7 and the “weight loss greater than that observed in the placebo group” value ([4]; rimonabant 20 mg, 12 months, low-calorie diet, p≦0.001) was 6.3 ± 0.5 kg. For the same compound, the “patients who stopped showing the metabolic syndrome characteristics” value ([4]; rimonabant 20 mg, 12 months, p<0.001 vs placebo) was 60.2%, the “Liver weight/body weight ratio” value [5] was 3.86 ± 0.07 % and the “decrease of the increase in the liver weight/body weight ratio seen in obese/vehicle rats” value [5] was 80%. The “fat overload in the liver (histopathological analysis)” value [5] was “disappearance of this fat overload”.
